Experimental data as given in patent US11365192B2, “Pyridine compound substituted with azole” (TAISHO PHARMACEUTICAL CO., LTD., priority 2017, dated 2022).

Tests used:
human CYP4F2 = human CYP4F2 (Homo sapiens (Human), UniProt P78329); test: Inhibition test against 20-HETE producing enzyme CYP4F2 (luciferine derivative, luminescence); format: biochemical
Method in brief: (§1)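 IC50 derived from luminescence after 60 min at room temperature with membrane fractions of E. coli expressing each human CYP (100 μg/mL protein). For CYP4A11, 60 μM luciferin derivative in 100 mM Tris-HCl pH 7.5 with NADPH-regenerating system; for CYP4F2, 2.5 μM substrate, 1 mM NADPH, 50 mM KPO4 pH 7.4.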

human CYP4A11 = human CYP4A11 (Homo sapiens (Human), UniProt Q02928); test: Inhibition test against 20-HETE producing enzyme CYP4A11 (luciferine derivative, luminescence); format: biochemical
Chain of human CYP4A11 (Q02928 5-519): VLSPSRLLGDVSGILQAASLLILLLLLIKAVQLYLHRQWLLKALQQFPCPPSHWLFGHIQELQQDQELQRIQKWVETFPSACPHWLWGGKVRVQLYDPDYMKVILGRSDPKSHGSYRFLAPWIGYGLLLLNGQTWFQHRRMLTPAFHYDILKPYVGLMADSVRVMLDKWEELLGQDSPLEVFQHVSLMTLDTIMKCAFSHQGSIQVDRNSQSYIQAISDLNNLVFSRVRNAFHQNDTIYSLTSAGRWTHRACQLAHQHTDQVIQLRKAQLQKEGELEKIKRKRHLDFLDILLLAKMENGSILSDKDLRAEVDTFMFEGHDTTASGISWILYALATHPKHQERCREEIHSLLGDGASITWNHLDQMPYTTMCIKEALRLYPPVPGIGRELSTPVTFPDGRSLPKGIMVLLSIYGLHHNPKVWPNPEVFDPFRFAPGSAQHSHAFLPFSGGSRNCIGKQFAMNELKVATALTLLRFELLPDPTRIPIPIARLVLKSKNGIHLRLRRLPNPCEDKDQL
Method in brief: as §1

[1] = target: 20-HETE producing enzymes, human kidney microsome; test: Inhibition test against 20-HETE producing enzymes using human kidney microsomes (LC-MS/MS); format: biochemical; conditions: for IC50: human kidney microsome 250 μg/mL protein, 20 μM arachidonic acid, 37° C. 45 minutes, LC-MS/MS
Procedure: (1) Inhibition Test for Each Compound of the Present Invention Against 20-HETE Producing Enzymes Using Human Kidney Microsomes
The reaction solution containing each compound [final concentration of 100 mM, KPO4 (pH 7.4), 20 μM Arachidonic acid, 4 mM NADPH] was added to the human kidney microsome (250 μg/mL protein). Following this, the microsome was left to stand at 37° C. for 45 minutes to perform 20-HETE producing reaction. After adding formic acid to stop the reaction, 9 times amount of acetonitrile was added, and deproteinization was carried out by centrifugation (1000 rpm, 4° C., 10 minutes). After that, the peak area value of 20-HETE was measured using a liquid chromatograph-tandem mass spectrometer (LC-MS/MS), and by using that value, the percent inhibition of 20-HETE producing enzyme (%) was calculated according to the equation described below, and the 50% inhibitory concentration (IC50 value) for each compound was calculated. Percent inhibition of 20-HETE producing enzyme (%)=[1−(A−B)/(C−B)]*100
A: Peak area value of 20-HETE/peak area value of internal standard substance with addition of compound
B: Peak area value of 20-HETE/peak area value of internal standard substance without addition of compound and NADPH
C: Peak area value of 20-HETE/peak area value of internal standard substance without addition of compound
(3) Inhibition Test for Compound a and Compound B Disclosed in WO03/022821 Against 20-HETE Producing Enzymes Using Human Kidney Microsomes
For compound A and compound B disclosed in WO03/022821, which have been described above, the 50% inhibitory concentration (IC50 value) against 20-HETE producing enzymes was calculated according to the method described in Test Example 2.
On the other hand, as described above, in Test Example 2, nonradioactive arachidonic acid was used as a substrate for 20-HETE producing reaction, and the amount of 20-HETE produced was measured using LC-MS/MS. In this case, the concentration of arachidonic acid, the substrate, is 20 μM.
In recent years, it is recommended that the substrate concentration for calculating the IC50 value be set at the Km value (Assay Guidance Manual, Sittampalam et. al. (URL: http://www.ncbi.nlm.nih.gov/books/NBK53196/)). According to this, in Test Example 2 described above, human kidney microsomes were used to calculate the Km value, and the calculated Km value of 20 μM was set as the concentration of the substrate, arachidonic acid.

human CYP4F22 = human CYP4F22 (Homo sapiens (Human), UniProt Q6NT55); test: CYP4F22 selectivity test; format: biochemical; conditions: cell membrane fraction expressing human CYP4F22, 14 μM luciferine derivative, 50 minutes
Chain of human CYP4F22 (Q6NT55 whole entry): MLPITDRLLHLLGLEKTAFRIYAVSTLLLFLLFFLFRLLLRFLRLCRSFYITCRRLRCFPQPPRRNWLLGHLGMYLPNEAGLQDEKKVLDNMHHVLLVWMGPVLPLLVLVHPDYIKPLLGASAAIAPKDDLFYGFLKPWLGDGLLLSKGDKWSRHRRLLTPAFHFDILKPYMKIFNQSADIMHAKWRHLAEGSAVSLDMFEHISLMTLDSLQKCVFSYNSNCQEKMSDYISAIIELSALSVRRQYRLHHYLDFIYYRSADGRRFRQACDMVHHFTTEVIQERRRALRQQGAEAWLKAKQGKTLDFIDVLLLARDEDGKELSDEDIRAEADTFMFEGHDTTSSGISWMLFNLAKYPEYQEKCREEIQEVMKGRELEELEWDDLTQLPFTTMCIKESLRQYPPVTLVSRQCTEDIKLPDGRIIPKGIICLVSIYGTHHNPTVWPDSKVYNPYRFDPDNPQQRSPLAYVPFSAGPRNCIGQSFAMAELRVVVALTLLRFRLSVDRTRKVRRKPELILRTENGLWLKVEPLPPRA
Procedure: (1) CYP4F22 Selectivity Test for Each Compound of the Present Invention
(§2) The reaction solution containing each compound [final concentration of 100 mM KPO4 (pH 7.4), 14 μM luciferine derivative, and 1 mM NADPH] was added to a cell membrane fraction (30 μg/mL protein) in which human CYP4F22 had been expressed. Following this, the cell membrane fraction was left to stand at room temperature for 50 minutes to perform an enzymatic reaction. After the reaction, a luciferine detection reagent was added, and the luminescence value was measured using a plate reader. By using that value, the percent inhibition of the enzymatic reaction of CYP4F22(%) was calculated according to the equation described below, and the 50% inhibitory concentration (IC50 value) for each compound was calculated. Percent inhibition of CYP4F22 enzyme (%)=[1−(A−B)/(C−B)]*100
(§3) A: Luminescence value with addition of compound
(§4) B: Luminescence value without addition of compound and enzyme
(§5) C: Luminescence value without addition of compound

human CYP4V2 = human CYP4V2 (Homo sapiens (Human), UniProt Q6ZWL3); test: CYP4V2 selectivity test; format: biochemical; conditions: cell membrane fraction expressing human CYP4V2, 7 μM luciferine derivative, 40 minutes
Chain of human CYP4V2 (Q6ZWL3 whole entry): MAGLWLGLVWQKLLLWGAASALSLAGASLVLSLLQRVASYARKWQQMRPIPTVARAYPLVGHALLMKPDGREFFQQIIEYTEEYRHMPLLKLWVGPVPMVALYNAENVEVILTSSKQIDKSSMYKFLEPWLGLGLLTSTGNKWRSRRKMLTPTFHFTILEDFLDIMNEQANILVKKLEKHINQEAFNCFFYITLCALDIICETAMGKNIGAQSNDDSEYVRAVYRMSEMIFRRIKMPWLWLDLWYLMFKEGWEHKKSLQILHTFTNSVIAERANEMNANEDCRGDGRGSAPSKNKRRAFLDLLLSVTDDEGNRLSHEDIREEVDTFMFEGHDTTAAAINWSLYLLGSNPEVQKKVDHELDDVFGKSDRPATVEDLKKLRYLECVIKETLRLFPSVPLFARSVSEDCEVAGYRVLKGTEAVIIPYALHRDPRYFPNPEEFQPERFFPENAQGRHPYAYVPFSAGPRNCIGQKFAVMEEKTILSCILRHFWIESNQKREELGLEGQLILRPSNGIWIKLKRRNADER
Procedure: (3) CYP4V2 Selectivity Test for Each Compound of the Present Invention
as §2, with “7.4), 7” for “7.4), 14”, “fraction (38” for “fraction (30”, “human CYP4V2” for “human CYP4F22”, “for 40” for “for 50”, “of CYP4V2(%)” for “of CYP4F22(%)”, “of CYP4V2” for “of CYP4F22”
as §3, §4, §5

[2] = Evaluation test for in vivo stability (half-life in plasma after intravenous administration to rats); design: species or system rats (Sprague-Dawley); conditions: rats (SD, male), 0.5 mg/kg, half-life in plasma from CL and Vdss
Procedure: (1) Evaluation Test for In Vivo Stability of Each Compound of the Present Invention
Each compound was dissolved in an aqueous solution of 10% HP-β-CD (0.5 mg/mL), and intravenously administered to rats (Sprague-Dawley (SD), male, 7-week-old, fasted, dose: 0.5 mg/kg). Blood was collected from the tail vein at each time of blood collection, and the plasma was collected by centrifugation. Quantitative analysis of each compound in plasma was performed using LC-MS/MS. Half-life in plasma (t1/2eff) was calculated from clearance (CL) and distribution volume (Vdss) calculated through noncompartmental analysis with Phoenix WinNonlin (Certara, L.P.), according to the equation described below. t1/2eff=LN(2)/(CL/Vdss)

[3] = human CYP4F2, luciferine derivative, luminescence
[4] = human CYP4A11, luciferine derivative, luminescence

Chain of human CYP4F2 (P78329 5-520): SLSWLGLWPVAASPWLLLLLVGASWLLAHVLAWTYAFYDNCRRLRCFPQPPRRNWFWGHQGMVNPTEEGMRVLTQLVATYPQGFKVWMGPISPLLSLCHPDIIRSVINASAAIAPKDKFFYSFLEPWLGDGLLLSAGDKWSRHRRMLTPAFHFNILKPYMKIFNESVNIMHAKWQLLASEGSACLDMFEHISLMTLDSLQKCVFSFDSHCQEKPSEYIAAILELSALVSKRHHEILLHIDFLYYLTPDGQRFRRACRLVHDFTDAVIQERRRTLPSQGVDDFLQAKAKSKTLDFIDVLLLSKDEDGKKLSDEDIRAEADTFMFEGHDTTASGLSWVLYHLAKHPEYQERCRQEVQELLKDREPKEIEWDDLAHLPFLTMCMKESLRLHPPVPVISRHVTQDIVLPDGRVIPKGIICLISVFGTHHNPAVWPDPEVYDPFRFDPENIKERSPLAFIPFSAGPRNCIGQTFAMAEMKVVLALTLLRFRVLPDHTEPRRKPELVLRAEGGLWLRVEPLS

IC50 (human CYP4F2; [3]) [nM] | IC50 (human CYP4A11; [4]) [nM] | IC50 [1] [nM] | IC50 (human CYP4F22) [nM] | IC50 (human CYP4V2) [nM] | t1/2eff [2] [h] | Structure (SMILES) | IC50 (human CYP4F2; E. coli membrane fraction expressing human CYP4F2, 2.5 μM luciferine derivative, room temperature 60 minutes) [nM] | IC50 (human CYP4A11; E. coli membrane fraction expressing human CYP4A11, 60 μM luciferine derivative, room temperature 60 minutes) [nM] | inhibitory activities against 20-HETE producing enzymes compared to compound A and compound B ([1]; comparison with compound A and compound B of WO03/022821, human kidney microsomes)
240 | 19 | 12 | 1300 | 620 | 3.6 | O=C(O)C1CC1c1cccc(COc2ccc(-c3ccn[nH]3)nc2)c1F (single isomer, unassigned) [Example 71-46] |  |  | 
97 | 120 | 4.7 | 2500 | 510 | 2.4 | O=C(O)C1(OCCCCCCCOc2ccc(-c3ccn[nH]3)nc2)CCC1 [Example 72-2] |  |  | 
43 | 130 | 4 | 3800 | 1500 | 1.4 | O=C(O)C1(CCCCCCCCOc2ccc(-c3ccn[nH]3)nc2)COC1 [Example 72-3] |  |  | 
12 | 160 | 1.7 | 2300 | 660 |  | O=C(O)C1(CCCCCCCCOc2ccc(-c3ccn[nH]3)nc2)CS(=O)(=O)C1 [Example 73-1, 1,1-Dioxo-3-[8-[6-(1H-pyrazol-5-yl)pyridin-3-yl]oxyoctyl]thietane-3-carboxylic Acid] |  |  | 
130 | 53 | 20 | 280 | 2300 |  | O=C(O)C1CC1c1cc(CCOc2ccc(-c3ccn[nH]3)nc2)ccc1F (stereo not shown) [Example 74-2] |  |  | 
58 | 82 | 4.4 | 480 | 2300 | 3.5 | O=C(O)[C@H]1C[C@@H]1c1cccc(CCOc2ccc(-c3ccn[nH]3)nc2)c1F [Example 74-4] |  |  | 
80 | 88 | 9.1 | 3000 | 5000 |  | O=C(O)[C@@H]1C[C@H]1c1cccc(CCOc2ccc(-c3ccn[nH]3)nc2)c1F [Example 74-5] |  |  | 

Structure (SMILES) | IC50 (human CYP4F2; [3]) [nM] | IC50 (human CYP4A11; [4]) [nM] | IC50 [1] [nM] | IC50 (human CYP4F22) [nM] | IC50 (human CYP4V2) [nM] | t1/2eff [2] [h] | IC50 (human CYP4F2; E. coli membrane fraction expressing human CYP4F2, 2.5 μM luciferine derivative, room temperature 60 minutes) [nM] | IC50 (human CYP4A11; E. coli membrane fraction expressing human CYP4A11, 60 μM luciferine derivative, room temperature 60 minutes) [nM] | inhibitory activities against 20-HETE producing enzymes compared to compound A and compound B ([1]; comparison with compound A and compound B of WO03/022821, human kidney microsomes)
CC(C)(OCCCCCCCOc1ccc(-c2ccn[nH]2)nc1)C(=O)O [Example 15-1, 2-Methyl-2-[7-[[6-(1H-pyrazol-5-yl)-3-pyridinyl]oxy]heptoxy]propanoic Acid] |  |  | 18 | 2900 | 1000 | 2.4 | 220 | 120 | stronger inhibitory activities
